Results published in paper PMC9424906 (Frontiers in Pharmacology, 2022).
pEC50: −log10 of the molar value.

Assays:
[1] = Bidirectional transport in Caco-2 monolayers; settings: human, Caco-2, pH 7.4
[2] = biological target: T1, BCRP (Homo sapiens, UniProt Q9UNQ0); test: Bidirectional transport in MDCK-BCRP monolayers; format: in vitro ADME; settings: dog, pH 7.4; MDCK-BCRP cells; read-out: Efflux ratio of positive control
T1 construct: host or cells: MDCK (BCRP-MDCK)
T1 sequence (Q9UNQ0 1-655): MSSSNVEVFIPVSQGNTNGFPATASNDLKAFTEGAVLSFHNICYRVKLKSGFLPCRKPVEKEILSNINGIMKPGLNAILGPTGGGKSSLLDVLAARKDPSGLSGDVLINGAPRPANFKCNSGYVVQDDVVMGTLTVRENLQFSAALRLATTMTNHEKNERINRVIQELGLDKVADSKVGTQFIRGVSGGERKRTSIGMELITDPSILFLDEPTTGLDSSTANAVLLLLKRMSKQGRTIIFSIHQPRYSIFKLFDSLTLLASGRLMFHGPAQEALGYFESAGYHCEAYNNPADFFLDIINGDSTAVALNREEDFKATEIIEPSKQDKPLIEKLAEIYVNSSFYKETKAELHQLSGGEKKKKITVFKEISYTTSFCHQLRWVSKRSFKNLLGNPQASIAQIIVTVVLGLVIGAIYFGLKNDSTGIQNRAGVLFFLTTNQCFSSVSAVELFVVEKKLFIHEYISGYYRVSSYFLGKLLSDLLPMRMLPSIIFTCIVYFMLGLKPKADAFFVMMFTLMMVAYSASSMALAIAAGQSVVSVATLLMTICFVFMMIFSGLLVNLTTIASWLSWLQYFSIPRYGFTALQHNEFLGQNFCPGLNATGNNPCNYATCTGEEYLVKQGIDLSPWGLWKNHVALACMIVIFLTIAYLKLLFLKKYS
Protocol: Caco-2 (American Type Culture Collection), MDR1-MDCK (NIH), and BCRP-MDCK (transfected by Absorption Systems) cell monolayers were grown to confluence on collagen-coated, microporous membranes in 12-well assay plates. Caco-2 cells were cultured for 27 days, MDCK-MDR1 and MDCK-BCRP cells were cultured for 8 days prior to experiments. […] The experiment was carried out in Hanks’ balanced salt solution (HBSS) containing 10 mM HEPES and 15 mM glucose at pH 7.4. HBSS in the receiver chamber also contained 1% bovine serum albumin. Cells were first pre-incubated for 0.5 h in HBSS with or without the specific inhibitor (1 µM valspodar or 0.5 µM Ko143 for MDR1 and BCRP, respectively). […] Cell monolayers were dosed on the apical side (A to B) or basolateral side (B to A) and incubated at 37°C with 5% CO2 in a humidified incubator. Samples were taken from the donor and receiver chambers at 2 h. Each experiment was performed in duplicate. All samples were assayed by LC-MS/MS. The apparent permeability (Papp) and percent recovery were calculated as described previously ([Katoh et al., 2006]; [Xia et al., 2006]; [Li et al., 2008]).

[3] = test system: mild to moderate COVID-19 patients at high risk of progression to severe disease; set-up: method as in https://www.fda.gov/media/154472/download; settings: ref https://www.fda.gov/media/154472/download; cited from earlier work
[4] = test system: ENT2; settings: cited from earlier work
[5] = test system: ENT1; settings: cited from earlier work
[6] = test system: MDR1; test: in vitro; settings: dog, MDCK-MDR1, pH 7.4
[7] = test system: mild to moderate COVID-19 patients at risk of progression to severe disease; set-up: method as in Gottlieb et al., 2021; settings: early 3-day course, ref Gottlieb et al., 2021; cited from earlier work
[8] = test system: EpiAirway human tracheobronchial epithelial tissues; settings: EpiAirway 3D HAE tissue model
[9] = test system: SARS-CoV-2 (2019-nCoV/USA-WAl/2020); format: cell-based; settings: EpiAirway 3D HAE tissue model, 24 h
[10] = test system: SARS-CoV-2 (USA_WA1/2020); test: SARS-CoV-2 cytopathic effect (CPE) assay in Vero E6 cells; format: cell-based; settings: Severe acute respiratory syndrome coronavirus 2, Vero C1008, 72 h, read-out: EC50, inhibition of SARS-CoV-2 CPE
[11] = test system: hospitalized COVID-19 patients; set-up: method as in Beigel et al., 2020a; settings: treatment group, ref Beigel et al., 2020a; cited from earlier work

In the case of `Nc1nc(Cl)nc2c1ncn2[C@H]1C[C@H](O)[C@@H](CO)O1` [cladribine, reference compound], the efflux ratio at 2 h [1] was 26 and the efflux ratio at 2 h [2] was 153.

For `CC(C)C(=O)OC[C@H]1O[C@@H](n2ccc(NO)nc2=O)[C@H](O)[C@@H]1O` [EIDD-2801], the “Reduction of progression to hospitalization of death compared to placebo” value [3] is listed as 30%, the “Inhibitor of ENT2” value [4] is listed as “inhibitors” and the “Inhibitor of ENT1” value [5] is listed as “inhibitors”.

In the case of `O=c1nc(NO)ccn1[C@@H]1O[C@H](CO)[C@@H](O)[C@H]1O` [EIDD-1931, N-hydroxycytidine], the “Inhibitor of ENT2” value [4] is listed as “inhibitors” and the “Inhibitor of ENT1” value [5] is listed as “inhibitors”.

Molecule `C[C@H]1O[C@@H](O[C@H]2[C@@H](O)C[C@H](O[C@H]3[C@@H](O)C[C@H](O[C@H]4CC[C@@]5(C)[C@H](CC[C@@H]6[C@@H]5C[C@@H](O)[C@]5(C)[C@@H](C7=CC(=O)OC7)CC[C@]65O)C4)O[C@@H]3C)O[C@@H]2C)C[C@H](O)[C@@H]1O` [digoxin, reference compound] has an efflux ratio at 2 h [6] of 110 and an efflux ratio at 2 h [1] of 27.

For `CCC(CC)COC(=O)[C@H](C)N[P@](=O)(OC[C@H]1O[C@@](C#N)(c2ccc3c(N)ncnn23)[C@H](O)[C@@H]1O)Oc1ccccc1` [remdesivir], the “Reduction of progression to hospitalization or death” value [7] is given as 87%, the Cytotoxicity [8] is given as “did not exhibit any cytotoxicity” and the “Potency on viral titer (TCID50) at 24 h” value [9] is given as “lower potency than EIDD-2801”. The pEC50 [10] was 5.13 and the “Reduction of time to recovery” value [11] was 33%.
